From patent US7728003B2, “5-oxo-5,8-dihydro-pyrido-pyrimidines as inhibitors of c-fms kinase” (Janssen Pharmaceutica N.V., priority 2005, dated 2010)

Target: c-fms (Homo sapiens, UniProt P07333)
Assay: c-fms autophosphorylation, fluorescence polarization competition immunoassay
Assay type: biochemical
Settings: 10 nM c-fms, 1 mM ATP; for inhibition at 0.1 µM: test concentration 0.1 μM, read-out: c-fms Autophosphorylation Percent Inhibition, % @ 0.1 μM; for inhibition at 1 µM: test concentration 1 μM, read-out: c-fms Autophosphorylation Percent Inhibition, % @ 1 μM
Protocol: The assay buffer used was 100 mM 4-(2-hydroxyethyl)piperazine 1-ethanesulfonic acid (HEPES), pH 7.5, 1 mM 1,4-dithio-DL-threitol (DTT), 0.01% (v/v) Tween-20. Compounds were diluted in assay buffer containing 4% dimethylsulfoxide (DMSO) just prior to the assay. To each well, 5 μL of compound were added followed by the addition of 3 μL of a mix containing 33 nM c-fms and 16.7 mM MgCl2 (Sigma) in assay buffer. The kinase reaction was initiated by adding 2 μL of 5 mM ATP (Sigma) in assay buffer. The final concentrations in the assay were 10 nM c-fms, 1 mM ATP, 5 mM MgCl2, 2% DMSO. Control reactions were ran in each plate: in positive and negative control wells, assay buffer (made 4% in DMSO) was substituted for the compound; in addition, positive control wells received 1.2 μL of 50 mM ethylenediaminetetraaceticacid (EDTA).
The plates were incubated at room temperature for 45 min. At the end of the incubation, the reaction was quenched with 1.2 μL of 50 mM EDTA (EDTA was not added to the positive control wells at this point; see above). Following a 5-min incubation, each well received 10 μL of a 1:1:3 mixture of anti-phosphotyrosine antibody, 10X, PTK green tracer, 10X (vortexed), FP dilution buffer, respectively (all from PanVera, cat. # P2837). The plate was covered, incubated for 30 min at room temperature and the fluorescence polarization was read on the Analyst. The instrument settings were: 485 nm excitation filter; 530 nm emission filter; Z height: middle of well; G factor: 0.93.
The percent inhibition is shown in Table 1 at the indicated test concentration. The IC50 shown in Table 2 are averages of three independent measurements.

c-fms, sequence (P07333 20-972): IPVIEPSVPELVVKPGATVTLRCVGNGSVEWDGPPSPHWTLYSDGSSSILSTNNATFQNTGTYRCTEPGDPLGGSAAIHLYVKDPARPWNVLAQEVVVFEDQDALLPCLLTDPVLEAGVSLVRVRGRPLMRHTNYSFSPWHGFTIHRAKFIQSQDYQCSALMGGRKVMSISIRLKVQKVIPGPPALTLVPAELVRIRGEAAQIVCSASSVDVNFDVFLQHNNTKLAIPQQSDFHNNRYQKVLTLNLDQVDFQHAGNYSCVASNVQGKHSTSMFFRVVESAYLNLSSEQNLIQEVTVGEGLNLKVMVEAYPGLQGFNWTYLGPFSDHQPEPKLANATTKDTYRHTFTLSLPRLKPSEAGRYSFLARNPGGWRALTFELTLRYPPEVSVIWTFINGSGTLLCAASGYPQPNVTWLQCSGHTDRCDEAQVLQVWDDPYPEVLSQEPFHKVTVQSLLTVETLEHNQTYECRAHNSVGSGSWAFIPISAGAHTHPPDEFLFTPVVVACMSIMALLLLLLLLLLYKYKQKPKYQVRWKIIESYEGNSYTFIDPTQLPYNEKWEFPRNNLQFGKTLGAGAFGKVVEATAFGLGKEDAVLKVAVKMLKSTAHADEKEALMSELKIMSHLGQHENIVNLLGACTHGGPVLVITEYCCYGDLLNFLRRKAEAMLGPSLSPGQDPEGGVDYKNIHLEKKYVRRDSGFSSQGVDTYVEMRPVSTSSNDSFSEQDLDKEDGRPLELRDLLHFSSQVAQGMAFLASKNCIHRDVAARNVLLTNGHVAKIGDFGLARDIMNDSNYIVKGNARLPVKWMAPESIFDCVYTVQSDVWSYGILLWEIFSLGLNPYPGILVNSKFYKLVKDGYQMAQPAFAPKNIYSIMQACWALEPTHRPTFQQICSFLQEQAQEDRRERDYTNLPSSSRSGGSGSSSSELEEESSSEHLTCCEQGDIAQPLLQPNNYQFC

inhibition at 0.1 µM [%] | inhibition at 1 µM [%] | IC50 (average of three independent measurements) [µM] | Structure (SMILES)
0 | 18 | – | CONC(=O)c1cn(C2CCCCC2)c2nc(NCCN3CCCC3)ncc2c1=O [Cpd 48, 8-Cyclohexyl-5-oxo-2-(2-pyrrolidin-1-yl-ethylamino)-5,8-dihydro-pyrido[2,3-d]pyrimidine-6-carboxylic acid methoxy-amide]
16 | 41 | – | COCCNc1ncc2c(=O)c(C(N)=O)cn(-c3ccc4c(c3)CCC4)c2n1 [Cpd 10, 8-Indan-5-yl-2-(2-methoxy-ethylamino)-5-oxo-5,8-dihydro-pyrido[2,3-d]pyrimidine-6-carboxylic acid amide]
15 | 46 | – | NC(=O)c1cn(-c2ccc3c(c2)CCC3)c2nc(NCCCN3CCCC3=O)ncc2c1=O [Cpd 8, 8-Indan-5-yl-5-oxo-2-[3-(2-oxo-pyrrolidin-1-yl)-propylamino]-5,8-dihydro-pyrido[2,3-d]pyrimidine-6-carboxylic acid amide]
6 | 23 | – | CNC(=O)c1cn(C2CCCCC2)c2nc(NCCCOC)ncc2c1=O [Cpd 56, 8-Cyclohexyl-2-(3-methoxy-propylamino)-5-oxo-5,8-dihydro-pyrido[2,3-d]pyrimidine-6-carboxylic acid methylamide]
16 | 45 | – | NC(=O)c1cn(-c2ccc3c(c2)CCC3)c2nc(NCCCN3CCCC3)ncc2c1=O [Cpd 9, 8-Indan-5-yl-5-oxo-2-(3-pyrrolidin-1-yl-propylamino)-5,8-dihydro-pyrido[2,3-d]pyrimidine-6-carboxylic acid amide]
17 | 43 | – | COCCCNc1ncc2c(=O)c(C(N)=O)cn(-c3ccc4c(c3)CCC4)c2n1 [Cpd 7, 8-Indan-5-yl-2-(3-methoxy-propylamino)-5-oxo-5,8-dihydro-pyrido[2,3-d]pyrimidine-6-carboxylic acid amide]
52 | 59 | – | CONC(=O)c1cn(-c2ccc3c(c2)CCC3)c2nc(NCCc3ccc(OC)cc3)ncc2c1=O [Cpd 24, 8-Indan-5-yl-2-[2-(4-methoxy-phenyl)-ethylamino]-5-oxo-5,8-dihydro-pyrido[2,3-d]pyrimidine-6-carboxylic acid methoxy-amide]
10 | 47 | – | COc1cc(CNc2ncc3c(=O)c(C(N)=O)cn(C4CCCCC4)c3n2)cc(OC)c1 [Cpd 40, 8-Cyclohexyl-2-(3,5-dimethoxy-benzylamino)-5-oxo-5,8-dihydro-pyrido[2,3-d]pyrimidine-6-carboxylic acid amide]
23 | 53 | – | CONC(=O)c1cn(C2CCCCC2)c2nc(NCc3cc(OC)cc(OC)c3)ncc2c1=O [Cpd 52, 8-Cyclohexyl-2-(3,5-dimethoxy-benzylamino)-5-oxo-5,8-dihydro-pyrido[2,3-d]pyrimidine-6-carboxylic acid methoxy-amide]
12 | 39 | – | CNC(=O)c1cn(-c2ccc3c(c2)CCC3)c2nc(NCCOC)ncc2c1=O [Cpd 16, 8-Indan-5-yl-2-(2-methoxy-ethylamino)-5-oxo-5,8-dihydro-pyrido[2,3-d]pyrimidine-6-carboxylic acid methylamide]
16 | 20 | – | CNC(=O)c1cn(C2CCCCC2)c2nc(NCCOC)ncc2c1=O [Cpd 57, 8-Cyclohexyl-2-(2-methoxy-ethylamino)-5-oxo-5,8-dihydro-pyrido[2,3-d]pyrimidine-6-carboxylic acid methylamide]
– | – | 3.3 | NC(=O)c1cn(-c2ccc3c(c2)CCC3)c2nc(NCCN3CCOCC3)ncc2c1=O [Cpd 4, 8-Indan-5-yl-2-(2-morpholin-4-yl-ethylamino)-5-oxo-5,8-dihydro-pyrido[2,3-d]pyrimidine-6-carboxylic acid amide]
